“And” between values parts separate entries of the source, which are not always exact repeats. Equal entries are not always repeated.
Tests used:
Experiment in all cases: Disruption of BRAF RBD interaction with Ras (FRET / MOA assay, with Cyclophilin A)
Assay type in all cases: biochemical
KRAS G12C = KRAS G12C (Homo sapiens, UniProt P01116+P62937, G12C); details: KRAS G12C; read-out: KRAS G12C FRET data IC50
Text: (§1) This protocol may also be executed substituting other Ras proteins or nucleotides.
(§2) The purpose of this biochemical assay was to measure the ability of test compounds to facilitate ternary complex formation between a nucleotide-loaded K-Ras isoform and Cyclophilin A; the resulting ternary complex disrupts binding to a BRAF^RBD construct, inhibiting K-Ras signaling through a RAF effector. Data is reported as IC50 values.
(§3) Compound was present in plate wells as a 10-point 3-fold dilution series starting at a final concentration of 30 μM. After incubation at 25° C. for 3 hours, a mixture of Anti-His Eu-W1024 and anti-GST allophycocyanin was then added to assay sample wells at final concentrations of 10 nM and 50 nM, respectively, and the reaction incubated for an additional 1.5 hours. […] Compounds that facilitate disruption of a K-Ras:RAF complex were identified as those eliciting a decrease in the TR-FRET ratio relative to DMSO control wells.
as §2, with “BRAF^RBDD” for “BRAF^RBD”

KRAS G12D = KRAS G12D (Homo sapiens, UniProt P01116+P62937, G12D); details: read-out: KRAS G12D FRET data, IC50
KRAS G12D, sequence (P01116 1-169 isoform P01116-2 G12D limits assumed): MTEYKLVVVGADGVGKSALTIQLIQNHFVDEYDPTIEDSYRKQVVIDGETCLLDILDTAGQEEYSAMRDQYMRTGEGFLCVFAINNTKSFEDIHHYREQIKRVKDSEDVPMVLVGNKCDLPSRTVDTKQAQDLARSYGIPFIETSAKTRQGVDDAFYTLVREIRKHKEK
KRAS G12D, sequence (P62937 whole entry): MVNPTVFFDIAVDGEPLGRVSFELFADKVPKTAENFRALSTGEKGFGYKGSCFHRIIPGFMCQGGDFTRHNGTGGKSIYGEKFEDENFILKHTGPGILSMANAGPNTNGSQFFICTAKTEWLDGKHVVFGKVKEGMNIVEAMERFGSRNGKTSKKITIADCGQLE
Text: as §1, §2, §3
as §2, with “BRAF^RBDD” for “BRAF^RBD”

NRAS G12C = NRAS G12C (Homo sapiens, UniProt P01111+P62937, G12C); details: NRAS G12C; read-out: NRAS G12C FRET data IC50
NRAS G12C, sequence (P01111 whole entry G12C): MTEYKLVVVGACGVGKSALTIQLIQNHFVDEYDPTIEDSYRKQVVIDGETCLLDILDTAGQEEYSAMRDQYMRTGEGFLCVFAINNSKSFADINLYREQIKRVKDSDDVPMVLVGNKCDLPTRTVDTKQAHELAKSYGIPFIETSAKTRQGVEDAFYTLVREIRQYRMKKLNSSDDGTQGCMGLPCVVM
NRAS G12C, sequence (P62937 whole entry): as the sequence (P62937 whole entry) above
Text: as §1, §2, §3
as §2, with “BRAF^RBDD” for “BRAF^RBD”

KRAS G12S = KRAS G12S (Homo sapiens, UniProt P01116+P62937, G12S); details: read-out: KRAS G12S FRET data, IC50
KRAS G12S, sequence (P01116 1-169 isoform P01116-2 G12S limits assumed): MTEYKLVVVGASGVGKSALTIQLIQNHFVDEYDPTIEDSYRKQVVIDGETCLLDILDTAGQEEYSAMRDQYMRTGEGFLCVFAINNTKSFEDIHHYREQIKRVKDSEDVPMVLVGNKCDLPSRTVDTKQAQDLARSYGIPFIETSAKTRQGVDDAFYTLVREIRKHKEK
KRAS G12S, sequence (P62937 whole entry): as the sequence (P62937 whole entry) above
Text: as §1, §2, §3
as §2, with “BRAF^RBDD” for “BRAF^RBD”

KRAS G12V = KRAS G12V (Homo sapiens, UniProt P01116+P62937, G12V); details: KRAS G12V; read-out: KRAS G12V FRET data IC50
KRAS G12V, sequence (P01116 1-169 isoform P01116-2 G12V limits assumed): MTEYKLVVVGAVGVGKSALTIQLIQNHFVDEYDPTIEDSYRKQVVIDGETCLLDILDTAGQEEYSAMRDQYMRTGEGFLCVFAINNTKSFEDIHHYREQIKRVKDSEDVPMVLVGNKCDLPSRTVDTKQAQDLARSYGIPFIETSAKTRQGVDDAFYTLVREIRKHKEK
KRAS G12V, sequence (P62937 whole entry): as the sequence (P62937 whole entry) above
Text: as §1, §2, §3
as §2, with “BRAF^RBDD” for “BRAF^RBD”

KRAS G13C = KRAS G13C (Homo sapiens, UniProt P01116+P62937, G13C); details: KRAS G13C; read-out: KRAS G13C FRET data IC50
KRAS G13C, sequence (P01116 1-169 isoform P01116-2 G13C): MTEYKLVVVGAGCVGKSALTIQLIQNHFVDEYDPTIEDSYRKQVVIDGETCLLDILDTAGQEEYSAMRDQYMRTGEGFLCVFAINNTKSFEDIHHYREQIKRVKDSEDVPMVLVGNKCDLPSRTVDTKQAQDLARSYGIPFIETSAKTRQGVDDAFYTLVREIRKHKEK
KRAS G13C, sequence (P62937 whole entry): as the sequence (P62937 whole entry) above
Text: as §1, §2, §3
as §2, with “BRAF^RBDD” for “BRAF^RBD”

KRAS WT = KRAS WT (Homo sapiens, UniProt P01116+P62937); details: KRAS WT; read-out: KRAS WT FRET data IC50
KRAS WT, sequence (P01116 1-169 isoform P01116-2 limits assumed): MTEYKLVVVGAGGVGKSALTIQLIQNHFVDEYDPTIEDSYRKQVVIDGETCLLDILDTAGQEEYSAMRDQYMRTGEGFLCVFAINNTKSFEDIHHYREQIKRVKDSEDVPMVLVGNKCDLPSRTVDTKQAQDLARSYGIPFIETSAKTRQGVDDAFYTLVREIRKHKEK
KRAS WT, sequence (P62937 whole entry): as the sequence (P62937 whole entry) above
Text: as §1, §2, §3
as §2, with “BRAF^RBDD” for “BRAF^RBD”

KRAS G12C, sequence (P01116 1-169 isoform P01116-2 G12C): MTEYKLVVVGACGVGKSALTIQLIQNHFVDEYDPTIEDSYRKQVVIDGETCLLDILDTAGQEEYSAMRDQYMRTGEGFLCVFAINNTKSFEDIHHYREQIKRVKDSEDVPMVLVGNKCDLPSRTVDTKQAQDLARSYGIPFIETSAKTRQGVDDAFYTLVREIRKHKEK
KRAS G12C, sequence (P62937 whole entry): as the sequence (P62937 whole entry) above

| SMILES | IC50 (KRAS G12C) | IC50 (KRAS G12D) | IC50 (NRAS G12C) [nM] | IC50 (KRAS G12S) | IC50 (KRAS G12V) | IC50 (KRAS G13C) | IC50 (KRAS WT) |
| --- | --- | --- | --- | --- | --- | --- | --- |
| CCn1c(-c2cccnc2COC)c2c3cc(ccc31)-c1cc(O)cc(c1)C[C@H](NC(=O)[C@H](C(C)C)N(C)C(=O)[C@H]1CCN(C(=O)C#CCN3CCOCC3)C1)C(=O)N1CCC[C@H](N1)C(=O)OCC(C)(C)C2 [Example A095] | < 10 nM | > 10 µM | < 10 | – | – | – | – |
| C=CC(=O)N1CC[C@H](C(=O)N(C)[C@H](C(=O)N[C@H]2Cc3cc(O)cc(c3)-c3ccc4c(c3)c(c(-c3cccc(CN(C)C)c3)n4CC)CC(C)(C)COC(=O)[C@@H]3CCCN(N3)C2=O)C(C)C)C1 [Example A030] | 100 to 1000 nM | > 10 µM | – | 1000 to 10000 nM | 1000 to 10000 nM | 1000 to 10000 nM | 1 to 10 µM |
| C=CC(=O)N1CC[C@H](C(=O)N(C)[C@H](C(=O)N[C@H]2Cc3cc(O)cc(c3)-c3ccc4c(c3)c(c(-c3ccccc3CN(C)C)n4CC)CC(C)(C)COC(=O)[C@@H]3CCCN(N3)C2=O)C(C)C)C1 [Example A005] | 10 to 100 nM | 1 to 10 µM | – | 100 to 1000 nM | 100 to 1000 nM | 100 to 1000 nM | 0.1 to 1 µM |
| C=CC(=O)N1CC[C@H](C(=O)N(C)[C@H](C(=O)N[C@H]2Cc3cc(O)cc(c3)-c3ccc4c(c3)c(c(-c3cncc(CN(C)C)c3)n4CC)CC(C)(C)COC(=O)[C@@H]3CCCN(N3)C2=O)C(C)C)C1 [Example A073] | 100 to 1000 nM | > 10 µM | – | 1000 to 10000 nM | 1000 to 10000 nM | 1000 to 10000 nM | 1 to 10 µM |
| C=CC(=O)N1CCCN(C(=O)N(C)[C@H](C(=O)N[C@H]2Cc3cc(O)cc(c3)-c3ccc4c(c3)c(c(-c3ccccc3CCOC)n4CC)CC(C)(C)COC(=O)[C@@H]3CCCN(N3)C2=O)C(C)C)CC1 [Example A013] | 100 to 1000 nM | > 10 µM | – | 1000 to 10000 nM | 1000 to 10000 nM | 100 to 1000 nM | 1 to 10 µM |
| C=CC(=O)N1CCC(C(=O)N(C)[C@H](C(=O)N[C@H]2Cc3cc(O)cc(c3)-c3ccc4c(c3)c(c(-c3ccccc3CCOC)n4CC)CC(C)(C)COC(=O)[C@@H]3CCCN(N3)C2=O)C(C)C)CC1 [Example A014] | 100 to 1000 nM | > 10 µM | – | 1000 to 10000 nM | > 10000 nM | 1000 to 10000 nM | 1 to 10 µM |
| C=CC(=O)N1CC[C@H](C(=O)N(C)[C@H](C(=O)N[C@H]2Cc3cc(O)cc(c3)-c3ccc4c(c3)c(c(-c3ccncc3CCOC)n4CC)CC(C)(C)COC(=O)[C@@H]3CCCN(N3)C2=O)C(C)C)C1 (single isomer, unassigned) [Example A048] | 10 to 100 nM and 1000 to 10000 nM | 1 to 10 µM and > 10 µM | – | 100 to 1000 nM and > 10000 nM | 100 to 1000 nM and > 10000 nM | 100 to 1000 nM and > 10000 nM | 1 to 10 µM and > 10 µM |
| C=CC(=O)N1CC[C@H](C(=O)N(C)[C@H](C(=O)N[C@H]2Cc3cc(O)cc(c3)-c3ccc4c(c3)c(c(-c3ccc(C5CCN(C)CC5)cc3)n4CC)CC(C)(C)COC(=O)[C@@H]3CCCN(N3)C2=O)C(C)C)C1 [Example A039] | 100 to 1000 nM | 1 to 10 µM | – | 1000 to 10000 nM | 1000 to 10000 nM | 1000 to 10000 nM | 1 to 10 µM |
| C=CC(=O)N1CCC(C(=O)N(C)[C@H](C(=O)N[C@H]2Cc3cc(O)cc(c3)-c3ccc4c(c3)c(c(-c3ccccc3CN(C)C)n4CC)CC(C)(C)COC(=O)[C@@H]3CCCN(N3)C2=O)C(C)C)CC1 [Example A033] | 100 to 1000 nM | > 10 µM | – | 1000 to 10000 nM | > 10000 nM | 100 to 1000 nM | 1 to 10 µM |
| C=CC(=O)N1CC[C@H](C(=O)N(C)[C@H](C(=O)N[C@H]2Cc3cc(O)cc(c3)-c3ccc4c(c3)c(c(-c3cccnc3COC)n4CC)CC(C)(C)COC(=O)[C@@H]3CCCN(N3)C2=O)C2CCCC2)C1 [Example A055] | 10 to 100 nM | 1 to 10 µM | – | 100 to 1000 nM | 100 to 1000 nM | 100 to 1000 nM | 1 to 10 µM |
| C=CC(=O)N1CC[C@H](C(=O)N(C)[C@H](C(=O)N[C@H]2Cc3cc(O)cc(c3)-c3ccc4c(c3)c(c(-c3cnn(C)c3)n4CC)CC(C)(C)COC(=O)[C@@H]3CCCN(N3)C2=O)C(C)C)C1 [Example A099] | 100 to 1000 nM | > 10 µM | – | 1000 to 10000 nM | 1000 to 10000 nM | 1000 to 10000 nM | > 10 µM |
